Read-outs that look alike come from different tables or passages of the source.

The text below walks through data of US9504676B2, “Molecules inhibiting a metabolic pathway involving the Syk protein tyrosine kinase and method for identifying said molecules” (CENTRE NATIONAL DE LA RECHERCHE SCIENTIFIQUE, priority 2008, dated 2016).

The nature of series [1]: Observation of toxicity after administration to animals. The series is classed as in vivo, BALB/c mice. An excerpt: The pharmaceutical molecule screening approach described herein represents a generic platform wherein the initial use of antibodies makes it possible to detect the domains of the target molecule having a therapeutic potential, thus facilitating the design of chemical molecules (via in silico and/or in vitro screening) capable acting as functional antibody mimics and as potential protein-protein interaction inhibitors.
Finally, to extend these observations to mast cell functions in vivo, the inventors tested the effects of C-13 on passive systemic (PSA) and cutaneous anaphylaxis (PCA) induced in BALB/c mice by administering DNP-specific IgE molecules followed by intravenous stimulation with DNP-KLH hapten. […] The intensity of systemic anaphylaxis was determined by measuring both the drop in body temperature and the increase in vascular permeability following antigen administration.

A further series relates to mast cells. The series can be described thus: Early and delayed mast cell responses induced by FcεRI aggregation. The series is classed as cell-based. On the procedure: Binding of Btk and Vav with SLP-76 is critical for regulating PLC-γ activity on the membrane, calcium mobilisation and granule exocytosis^27, 28.
• 1) Chemical products and antibodies. A chemical bank of 3000 molecules (a varied subset) was acquired from ChemBridge, Inc. (San Diego, Calif.). Stocks of solutions of small molecules were prepared at a rate of 10 mM in DMSO (dimethylsulphoxide), except for C-13 (methyl 2-{5-[(3-benzyl-4-oxo-2-thioxo-1,3-thiazolidin-5-ylidene)methyl]-2-furyl}benzoate, ChemBridge ID No. 6197026) prepared in DMF (dimethylformamide). Unless specified otherwise, all the reagents were supplied by Sigma. Dinitrophenyl (DNP) hapten was acquired from Calbiochem. […] The binding of G4G11 with Syk was assessed by adding the 9E10 monoclonal antibody conjugated with HRP detecting the amino acid sequence EQKLISEEDLN of human c-myc protein located at the C-terminal end of the scFv fragment. To generate Syk mutants, targeted mutagenesis was used on GST:Syk 6-242 protein and the binding of G4G11 with the mutants was assessed in the presence of 5 μM of C-13. • 3) Cells, culture conditions and functional tests. […] The level of β-hexosaminidase released was measured 10 min later and the TNF-α titration was performed by means of a cytotoxicity test on L929 cells as described previously^10, 3 hours after stimulation. […]

With `COC(=O)c1ccccc1-c1ccc(/C=C2/SC(=S)N(Cc3ccccc3)C2=O)o1` [Molecule C-13, methyl 2-{5-[(3-benzyl-4-oxo-2-thioxo-1,3-thiazolidin-5-ylidene)methyl]-2-furyl}benzoate], in series [1] (after oral administration, prior to antigen stimulation), the “signs of toxicity in the animals” value is “no obvious sign of toxicity”. For the same molecule, the apparent toxic effect result in series [1] (oral or local administration, one hour to 12 days) was “lack of an apparent toxic effect”. In addition, the IC50 in the series on mast cells (read-out: estimated IC50, delayed mast cell response (TNF-α secretion)) was approximately 2000 nM; with mast cells (read-out: estimated IC50, early mast cell response (β-hexosaminidase release)), approximately 2000 nM.
